# Measured values published in patent US5358712A, “Radiopharmaceutical agents for the detection of Alzheimer's disease” (Regents of the University of Minnesota, priority 1993, dated 1994).
# Experiments:
# vesamicol receptor = experiment: Blocking experiments: inhibition of radiotracer accumulation in the rat by coadministered compound; type: in vivo, rat (male Wistar); conditions: rat, 60 min; for reduction of accumulation of radioactivity in the brain / reduction of accumulation of radioactivity in the heart: coadministered blocker; for Brain: Blood Ratio / Heart: Blood Ratio / radioactivity in blood / radioactivity in brain / radioactivity in heart / radioactivity in kidney / radioactivity in liver / radioactivity in lung / radioactivity in muscle / radioactivity in spleen: iv
# How it was run: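 Male Wistar rats (n=3/group) got iv radiotracer, alone or coadministered with blocker (e.g. (+)/(−)-HBrPP·HCl 1.3 μmol/kg, vesamicol·HCl 1.1 μmol/kg, or 0.31–0.53 mg/kg in other series). Blood and tissues taken 60 min post-injection to assess radiotracer accumulation.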
# rat brain = experiment: Ex vivo autoradiographic studies, regional distribution in the rodent brain; design: species or system rat (male Wistar); conditions: 3 hours
# Experimental: Four male Wistar rats weighing 300-330 g. were anesthetized with diethyl ether. While under anesthesia two animals each received an intravenous dose of 300 μCi of (-)-4-[^125 I]HIPP in […] of 50% aqueous ethanol. The second pair of animals received an iv dose of (+)-4-[^125I]HIPP (170 μCi) in the same solvent. The animals were sacrificed by decapitation three hours following radiotracer administration. The brains were harvested, embedded in Tissue Tek OCT embedding medium and frozen to -38° C. Twenty-micron thick brain sections were obtained at -15° C. using a Reicheft HistoSTAT cryostat microtome. The sections were dried and opposed to Kodak NMC film for autoradiography accompanied by external standards (^125 I-labelled microscales from Amersham). Images were subsequently digitized based on the linear scale obtained from these standards.
# [1] = Tissue distribution (biodistribution) of radioiodinated compound in the rat; conditions: for injected dose found in the brain: 5 minutes post injection; for concentration of radioactivity in the brain over time: duration of the study (3 hours); for Brain: Blood Ratio / Heart: Blood Ratio / radioactivity in blood / radioactivity in brain / radioactivity in heart / radioactivity in kidney / radioactivity in liver / radioactivity in lung / radioactivity in muscle / radioactivity in spleen: iv; for level of radioactivity in the blood: throughout the study; for brain retention (in words): rodent (and monkey)
# Experimental: Four groups of male Wistar rats (with four animals per group) weighing 200-350 g were used in these experiments. Each animal received, while under ether anesthesia, an intravenous injection of the radiotracer (10-20 μCi) dissolved in 0.1 ml of 50% aqueous ethanol. At 5, 30, and 60 and 180 min. post-injection, blood was collected from the anesthetized animals by cardiac puncture, and the animal was immediately sacrificed by cardiectomy. The organs and tissues of interest were harvested, transferred to preweighed tubes and counted in a Beckman gamma counter. The tubes were subsequently reweighed to give the weight of the corresponding tissues. Preweighed tubes containing ^1 -ml samples of a 1:100 dilution of the injection dose were also counted and used as reference for calculating the tissue accumulation of radioactivity. The accumulation of radiotracer was expressed as a percentage of injected dose per gram of tissue.
# [2] = + (dl)-vesamicol HCl 0.3 (Table 3) or 0.31 mg/kg
structure (smiles),measurement,setting,value
"OC(Cc1ccc([125I])cc1)CN1CCC(c2ccccc2)CC1 (single isomer, unassigned; (+)) [(+)-4-[^125 l]HIPP] [2-Hydroxy-3-(4-iodophenyl)-1-(4-phenylpiperidyl)propane]",reduction of accumulation of radioactivity in the brain,vesamicol receptor; listed as (+)-[^125 I]5,53%-58%
same,reduction of accumulation of radioactivity in the heart,vesamicol receptor; listed as (+)-[^125 I]5,74% -76%
same,Brain: Blood Ratio,vesamicol receptor; + (+)-7 HCl 0.53 mg/kg,3.9
same,Heart: Blood Ratio,vesamicol receptor; + (+)-7 HCl 0.53 mg/kg,1.8
same,radioactivity in blood,vesamicol receptor; + (+)-7 HCl 0.53 mg/kg,0.06 % dose/g of tissue
same,radioactivity in brain,vesamicol receptor; + (+)-7 HCl 0.53 mg/kg,0.32 % dose/g of tissue
same,radioactivity in heart,vesamicol receptor; + (+)-7 HCl 0.53 mg/kg,0.15 % dose/g of tissue
same,radioactivity in kidney,vesamicol receptor; + (+)-7 HCl 0.53 mg/kg,0.47 % dose/g of tissue
same,radioactivity in liver,vesamicol receptor; + (+)-7 HCl 0.53 mg/kg,1.13 % dose/g of tissue
same,radioactivity in lung,vesamicol receptor; + (+)-7 HCl 0.53 mg/kg,1.29 % dose/g of tissue
same,radioactivity in muscle,vesamicol receptor; + (+)-7 HCl 0.53 mg/kg,0.08 % dose/g of tissue
same,radioactivity in spleen,vesamicol receptor; + (+)-7 HCl 0.53 mg/kg,0.71 % dose/g of tissue
same,radioactivity in spleen,vesamicol receptor; + (-)-7 HCl 0.53 mg/kg,0.57 % dose/g of tissue
same,Brain: Blood Ratio,vesamicol receptor; + (-)-7 HCl 0.53 mg/kg,4.5
same,Heart: Blood Ratio,vesamicol receptor; + (-)-7 HCl 0.53 mg/kg,2.0
same,radioactivity in blood,vesamicol receptor; + (-)-7 HCl 0.53 mg/kg,0.05 % dose/g of tissue
same,radioactivity in brain,vesamicol receptor; + (-)-7 HCl 0.53 mg/kg,0.32 % dose/g of tissue
same,radioactivity in heart,vesamicol receptor; + (-)-7 HCl 0.53 mg/kg,0.16 % dose/g of tissue
same,radioactivity in kidney,vesamicol receptor; + (-)-7 HCl 0.53 mg/kg,0.54 % dose/g of tissue
same,radioactivity in liver,vesamicol receptor; + (-)-7 HCl 0.53 mg/kg,0.90 % dose/g of tissue
same,radioactivity in lung,vesamicol receptor; + (-)-7 HCl 0.53 mg/kg,1.51 % dose/g of tissue
same,radioactivity in muscle,vesamicol receptor; + (-)-7 HCl 0.53 mg/kg,0.09 % dose/g of tissue
same,Brain: Blood Ratio,vesamicol receptor; [2],9.7
same,Heart: Blood Ratio,vesamicol receptor; [2],3.8
same,radioactivity in blood,vesamicol receptor; [2],0.04 % dose/g of tissue
same,radioactivity in brain,vesamicol receptor; [2],0.36 % dose/g of tissue
same,radioactivity in heart,vesamicol receptor; [2],0.15 % dose/g of tissue
same,radioactivity in kidney,vesamicol receptor; [2],0.46 % dose/g of tissue
same,radioactivity in liver,vesamicol receptor; [2],2.23 % dose/g of tissue
same,radioactivity in lung,vesamicol receptor; [2],1.11 % dose/g of tissue
same,radioactivity in muscle,vesamicol receptor; [2],0.08 % dose/g of tissue
same,radioactivity in spleen,vesamicol receptor; [2],0.68 % dose/g of tissue
same,Brain: Blood Ratio,vesamicol receptor; radiotracer only (control),28.7
same,Heart: Blood Ratio,vesamicol receptor; radiotracer only (control),39.8
same,radioactivity in blood,vesamicol receptor; radiotracer only (control),0.02 % dose/g of tissue
same,radioactivity in brain,vesamicol receptor; radiotracer only (control),0.76 % dose/g of tissue
same,radioactivity in heart,vesamicol receptor; radiotracer only (control),0.60 % dose/g of tissue
same,radioactivity in kidney,vesamicol receptor; radiotracer only (control),1.63 % dose/g of tissue
same,radioactivity in liver,vesamicol receptor; radiotracer only (control),1.38 % dose/g of tissue
same,radioactivity in lung,vesamicol receptor; radiotracer only (control),3.46 % dose/g of tissue
same,radioactivity in muscle,vesamicol receptor; radiotracer only (control),0.13 % dose/g of tissue
same,radioactivity in spleen,vesamicol receptor; radiotracer only (control),1.10 % dose/g of tissue
same,radioactivity in cerebellar molecular layer relative to granular layer,rat brain,slightly higher concentration
same,radioactivity in frontal cortex and caudate-putamen,rat brain,Moderate levels
same,radioactivity in pineal gland and nuclei of fifth and seventh cranial nerves,rat brain,highest levels
same,radioactivity in the white matter,rat brain,relatively low
same,tissue distribution profile compared with (-)-[^125 I]5,[1]; rat,similar
same,injected dose found in the brain,"[1]; rat, listed as (+)-[^125 I]5",2.27 % of the injected dose
same,injected dose found in the heart,"[1]; rat, 5 minutes post-injection, listed as (+)-[^125 I]5",1.23 % of the injected dose
same,decrease of radioactivity in the heart,"[1]; rat, between 5 and 30 minutes",32%
same,concentration of radioactivity in the brain over time,"[1]; rat, listed as (+)-[^125 I]5",remained essentially constant
same,Brain: Blood Ratio,"[1]; rat, 5 min",15.2
same,Heart: Blood Ratio,"[1]; rat, 5 min",22.7
same,Brain: Blood Ratio,"[1]; rat, 30 min",32.4
same,Heart: Blood Ratio,"[1]; rat, 30 min",32.7
same,Brain: Blood Ratio,"[1]; rat, 60 min",44.3
same,Heart: Blood Ratio,"[1]; rat, 60 min",40.2
same,Brain: Blood Ratio,"[1]; rat, 180 min",44.8
same,Heart: Blood Ratio,"[1]; rat, 180 min",28.2
same,level of radioactivity in the blood,[1]; rat,low
same,brain retention (in words),[1],comparable retention
"OC(Cc1ccc([125I])cc1)CN1CCC(c2ccccc2)CC1 (single isomer, unassigned; (-)) [(-)-4-[^125 l]HIPP] [2-Hydroxy-3-(4-iodophenyl)-1-(4-phenylpiperidyl)propane]",reduction of accumulation of radioactivity in the brain,vesamicol receptor; listed as (-)-[^125 I]5,70%
same,reduction of accumulation of radioactivity in the heart,vesamicol receptor; listed as (-)-[^125 I]5,84%
same,Brain: Blood Ratio,vesamicol receptor; + (+)-7 HCl 0.53 mg/kg,5.6
same,Heart: Blood Ratio,vesamicol receptor; + (+)-7 HCl 0.53 mg/kg,2.5
same,radioactivity in liver,vesamicol receptor; + (+)-7 HCl 0.53 mg/kg,2.87 % dose/g of tissue
same,Brain: Blood Ratio,vesamicol receptor; + (-)-7 HCl 0.53 mg/kg,7.1
same,Heart: Blood Ratio,vesamicol receptor; + (-)-7 HCl 0.53 mg/kg,3.0
same,radioactivity in liver,vesamicol receptor; + (-)-7 HCl 0.53 mg/kg,1.90 % dose/g of tissue
same,Brain: Blood Ratio,vesamicol receptor; [2],12.7
same,Heart: Blood Ratio,vesamicol receptor; [2],4.9
same,Brain: Blood Ratio,vesamicol receptor; radiotracer only (control),42.7
same,Heart: Blood Ratio,vesamicol receptor; radiotracer only (control),36.5
same,radioactivity in cerebellar molecular layer relative to granular layer,rat brain,slightly higher concentration
same,radioactivity in frontal cortex and caudate-putamen,rat brain,Moderate levels
same,radioactivity in pineal gland and nuclei of fifth and seventh cranial nerves,rat brain,highest levels
same,radioactivity in the white matter,rat brain,relatively low
same,injected dose found in the brain,"[1]; rat, listed as (-)-[^125 I]5",1.94 % of the injected dose
same,injected dose found in the heart,"[1]; rat, 5 minutes post-injection, listed as (-)-[^125 I]5",1.2 % of the injected dose
same,reduction of injected dose in the heart,"[1]; rat, 5 minutes to 3 hours",50%
same,injected dose found in the heart,"[1]; rat, after 3 hours",0.59 % of the injected dose
same,concentration of radioactivity in the brain over time,"[1]; rat, listed as (-)-[^125 I]5",remained essentially stable
same,Brain: Blood Ratio,"[1]; rat, 5 min",12.3
same,Heart: Blood Ratio,"[1]; rat, 5 min",16.4
same,radioactivity in blood,"[1]; rat, 5 min",0.09 % dose/g
same,radioactivity in brain,"[1]; rat, 5 min",1.03 % dose/g
same,radioactivity in heart,"[1]; rat, 5 min",1.32 % dose/g
same,radioactivity in kidney,"[1]; rat, 5 min",2.89 % dose/g
same,radioactivity in liver,"[1]; rat, 5 min",1.33 % dose/g
same,radioactivity in lung,"[1]; rat, 5 min",8.62 % dose/g
same,radioactivity in muscle,"[1]; rat, 5 min",0.35 % dose/g
same,radioactivity in spleen,"[1]; rat, 5 min",0.87 % dose/g
same,Brain: Blood Ratio,"[1]; rat, 30 min",31.3
same,Heart: Blood Ratio,"[1]; rat, 30 min",26.8
same,radioactivity in blood,"[1]; rat, 30 min",0.03 % dose/g
same,radioactivity in brain,"[1]; rat, 30 min",0.94 % dose/g
same,radioactivity in heart,"[1]; rat, 30 min",0.74 % dose/g
same,radioactivity in kidney,"[1]; rat, 30 min",2.23 % dose/g
same,radioactivity in liver,"[1]; rat, 30 min",2.28 % dose/g
same,radioactivity in lung,"[1]; rat, 30 min",4.80 % dose/g
same,radioactivity in muscle,"[1]; rat, 30 min",0.19 % dose/g
same,radioactivity in spleen,"[1]; rat, 30 min",1.09 % dose/g
same,Brain: Blood Ratio,"[1]; rat, 60 min",55.5
same,Heart: Blood Ratio,"[1]; rat, 60 min",40.3
same,radioactivity in blood,"[1]; rat, 60 min",0.02 % dose/g
same,radioactivity in brain,"[1]; rat, 60 min",0.98 % dose/g
same,radioactivity in heart,"[1]; rat, 60 min",0.72 % dose/g
same,radioactivity in kidney,"[1]; rat, 60 min",1.85 % dose/g
same,radioactivity in liver,"[1]; rat, 60 min",2.0 % dose/g
same,radioactivity in lung,"[1]; rat, 60 min",3.33 % dose/g
same,radioactivity in muscle,"[1]; rat, 60 min",0.18 % dose/g
same,radioactivity in spleen,"[1]; rat, 60 min",1.40 % dose/g
same,Brain: Blood Ratio,"[1]; rat, 180 min",69.7
same,Heart: Blood Ratio,"[1]; rat, 180 min",42.5
same,radioactivity in blood,"[1]; rat, 180 min",0.01 % dose/g
same,radioactivity in brain,"[1]; rat, 180 min",0.94 % dose/g
same,radioactivity in heart,"[1]; rat, 180 min",0.57 % dose/g
same,radioactivity in kidney,"[1]; rat, 180 min",1.63 % dose/g
same,radioactivity in liver,"[1]; rat, 180 min",2.43 % dose/g
same,radioactivity in lung,"[1]; rat, 180 min",2.52 % dose/g
same,radioactivity in muscle,"[1]; rat, 180 min",0.16 % dose/g
same,radioactivity in spleen,"[1]; rat, 180 min",1.21 % dose/g
same,level of radioactivity in the blood,[1]; rat,low
same,brain retention (in words),[1],comparable retention
